Measurements taken from PubChem BioAssay AID1259407 (Chemical Carcinogenesis Research Information System (CCRIS), 2018).
Activity calls are given as the source filed them. How the calls were made is not given here.

Tested on: CCRIS mutagenicity, Ames/micronucleus/aberration tests
Assay: CCRIS mutagenicity studies

Measured: mutagenic call

ON=C1CCCCC1
inactive: Test System: AMES SALMONELLA TYPHIMURIUM, Strain/Indicator: TA97, Metabolic Activation: HAMSTER, LIVER, S-9, AROCLOR 1254 (30%), Method: PREINCUBATION inactive; negative | Test System: AMES SALMONELLA TYPHIMURIUM, Strain/Indicator: TA97, Metabolic Activation: NONE, Method: PREINCUBATION inactive; negative | Test System: AMES SALMONELLA TYPHIMURIUM, Strain/Indicator: TA97, Metabolic Activation: RAT, LIVER, S-9, AROCLOR 1254 (30%), Method: PREINCUBATION inactive; negative | Test System: AMES SALMONELLA TYPHIMURIUM, Strain/Indicator: TA98, Metabolic Activation: HAMSTER, LIVER, S-9, AROCLOR 1254 (30%), Method: PREINCUBATION inactive; negative | Test System: AMES SALMONELLA TYPHIMURIUM, Strain/Indicator: TA98, Metabolic Activation: HAMSTER, LIVER, S-9, AROCLOR 1254, Method: STANDARD PLATE inactive; negative | Test System: AMES SALMONELLA TYPHIMURIUM, Strain/Indicator: TA98, Metabolic Activation: NONE, Method: PREINCUBATION inactive; negative | Test System: AMES SALMONELLA TYPHIMURIUM, Strain/Indicator: TA98, Metabolic Activation: NONE, Method: STANDARD PLATE inactive; negative | Test System: AMES SALMONELLA TYPHIMURIUM, Strain/Indicator: TA98, Metabolic Activation: RAT, LIVER, S-9, AROCLOR 1254 (30%), Method: PREINCUBATION inactive; negative | Test System: AMES SALMONELLA TYPHIMURIUM, Strain/Indicator: TA98, Metabolic Activation: RAT, LIVER, S-9, AROCLOR 1254, Method: STANDARD PLATE inactive; negative | Test System: AMES SALMONELLA TYPHIMURIUM, Strain/Indicator: TA100, Metabolic Activation: HAMSTER LIVER S-9, AROCLOR 1254, Method: PREINCUBATION inactive; negative | Test System: AMES SALMONELLA TYPHIMURIUM, Strain/Indicator: TA100, Metabolic Activation: HAMSTER, LIVER, S-9, AROCLOR 1254 (30%), Method: PREINCUBATION inactive; negative | Test System: AMES SALMONELLA TYPHIMURIUM, Strain/Indicator: TA100, Metabolic Activation: HAMSTER, LIVER, S-9, AROCLOR 1254, Method: STANDARD PLATE inactive; negative | Test System: AMES SALMONELLA TYPHIMURIUM, Strain/Indicator: TA100, Metabolic Activation: NONE, Method: PREINCUBATION inactive; negative | Test System: AMES SALMONELLA TYPHIMURIUM, Strain/Indicator: TA100, Metabolic Activation: NONE, Method: STANDARD PLATE inactive; negative | Test System: AMES SALMONELLA TYPHIMURIUM, Strain/Indicator: TA100, Metabolic Activation: RAT, LIVER, S-9, AROCLOR 1254 (30%), Method: PREINCUBATION inactive; negative | Test System: AMES SALMONELLA TYPHIMURIUM, Strain/Indicator: TA100, Metabolic Activation: RAT, LIVER, S-9, AROCLOR 1254, Method: STANDARD PLATE inactive; negative | Test System: AMES SALMONELLA TYPHIMURIUM, Strain/Indicator: TA1535, Metabolic Activation: HAMSTER, LIVER, S-9, AROCLOR 1254, Method: STANDARD PLATE inactive; negative | Test System: AMES SALMONELLA TYPHIMURIUM, Strain/Indicator: TA1535, Metabolic Activation: NONE, Method: STANDARD PLATE inactive; negative | Test System: AMES SALMONELLA TYPHIMURIUM, Strain/Indicator: TA1535, Metabolic Activation: RAT, LIVER, S-9, AROCLOR 1254 (30%), Method: PREINCUBATION inactive; negative | Test System: AMES SALMONELLA TYPHIMURIUM, Strain/Indicator: TA1535, Metabolic Activation: RAT, LIVER, S-9, AROCLOR 1254, Method: STANDARD PLATE inactive; negative | Test System: AMES SALMONELLA TYPHIMURIUM, Strain/Indicator: TA1537, Metabolic Activation: HAMSTER, LIVER, S-9, AROCLOR 1254, Method: STANDARD PLATE inactive; negative | Test System: AMES SALMONELLA TYPHIMURIUM, Strain/Indicator: TA1537, Metabolic Activation: NONE, Method: STANDARD PLATE inactive; negative | Test System: AMES SALMONELLA TYPHIMURIUM, Strain/Indicator: TA1537, Metabolic Activation: RAT, LIVER, S-9, AROCLOR 1254, Method: STANDARD PLATE inactive; negative | Test System: AMES SALMONELLA TYPHIMURIUM, Strain/Indicator: TA1538, Metabolic Activation: HAMSTER, LIVER, S-9, AROCLOR 1254, Method: STANDARD PLATE inactive; negative | Test System: AMES SALMONELLA TYPHIMURIUM, Strain/Indicator: TA1538, Metabolic Activation: NONE, Method: STANDARD PLATE inactive; negative | Test System: AMES SALMONELLA TYPHIMURIUM, Strain/Indicator: TA1538, Metabolic Activation: RAT, LIVER, S-9, AROCLOR 1254, Method: STANDARD PLATE inactive; negative | Test System: MOUSE LYMPHOMA, Strain/Indicator: L5178Y (TK+/TK-), Metabolic Activation: RAT, LIVER, S-9, AROCLOR 1254, Method: SUSPENSION/PLATE inactive; negative. reevaluation of results: negative
active: Test System: AMES SALMONELLA TYPHIMURIUM, Strain/Indicator: TA1535, Metabolic Activation: HAMSTER LIVER S-9, AROCLOR 1254, Method: PREINCUBATION active; positive | Test System: AMES SALMONELLA TYPHIMURIUM, Strain/Indicator: TA1535, Metabolic Activation: HAMSTER, LIVER, S-9, AROCLOR 1254 (5,10 OR 30%), Method: PREINCUBATION active; positive | Test System: MOUSE LYMPHOMA, Strain/Indicator: L5178Y (TK+/TK-), Metabolic Activation: NONE, Method: SUSPENSION/PLATE active; positive. reevaluation of results: positive
